Laboratory results taken from patent EP3581565A1, “PHENYL BENZYL ETHER DERIVATIVE AND PREPARATION METHOD AND APPLICATION THEREOF” (Beijing Zhibo Bio-Medical Technology Co., Ltd., priority 2018, dated 2019).

test system: not listed separately; assay: logD of labeled ligands; format: physicochemical

Structure (SMILES) | logD
COc1ccc(OCc2ccc(OCC[18F])cc2)cc1 [[^18F]44a] | [^18F]44a(logD = 3.05 ± 0.08)
COc1ccc(COc2ccc(OCC[18F])cc2)cc1 [[^18F] 53a] | [^18F] 53a (logD= 3.65 ±0.04)
COc1ccc(OCc2ccc([125I])cc2)cc1 [[^125I]4] | [^125I]4 (logD = 4.00± 0.08)
CN(C)c1ccc(OCc2ccc([125I])cc2)cc1 [[^125I]22] | [^125I]22(logD = 2.89± 0.09)
COc1ccc(COc2ccc([125I])cc2)cc1 [[^125I]24] | [^125I]24 (logD = 4.16± 0.29)
FCCOc1ccc(OCc2ccc([125I])cc2)cc1 [[^125I]31a] | [^125I]31a(logD = 3.96± 0.22)

molecular target: T1, Aβ1-42 aggregates (Homo sapiens, UniProt P05067); assay: In-vitro competitive binding experiment (Ki determination) with Aβ1-42 aggregates
T1 construct: Preparing receptor Aβ1-42 proteins according to the existing method
T1 sequence (P05067 672-713 limits assumed): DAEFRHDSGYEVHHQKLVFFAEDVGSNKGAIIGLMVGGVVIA
Experimental: 4, the compounds are separated after balancing, and the inhibition constant (Ki) is calculated by determining radioactivity.
• (1) Preparing 41 of PBS (0.2M) buffer solution with pH=7.4; • (2) Preparing radioligand [^125I]

Structure (SMILES) | Ki
Clc1ccc(OCc2ccc(I)cc2)cn1 [Compound 55, 2-chloro-5-((4-iodobenzyl)oxy) pyridine] | 880 ± 72.4 nM
Brc1ccc(OCc2ccc(I)cc2)cn1 [Compound 57, 2-bromo-5-((4-iodobenzyl)oxy) pyridine] | 163 ± 23 nM
